Data as given in patent US4299813A, “Assay kit and method” (priority 1979, dated 1981).
Values joined by “and” are separate entries in the source; they are usually repeats but may differ in a detail not shown here. Equal values may be shown once.

Test system: muscarinic cholinergic receptor
Test: Muscarinic cholinergic radioreceptor assay ([3H] QNB competition, serum antidepressant levels)
Type: binding, rat (Sprague-Dawley)
[1] = Standard C, 5.0 μM amitriptyline, Table II
[2] = Standard D, 1.0 μM amitriptyline, Table II
[3] = Standard E, 0.2 μM amitriptyline, Table II
[4] = Standard C, 50 μM imipramine, Table III
[5] = Standard D, 10 μM imipramine, Table III
[6] = Standard E, 2 μM imipramine, Table III

How did the CPM (Sample 1, serum, Table II) turn out when `CN(C)CCC=C1c2ccccc2CCc2ccccc21` [amitriptyline] was run?
The CPM was 2537 CPM and 2867 CPM.

What about the “Logit (B/Bo)” value (Sample 1, serum, Table II) of the same compound?
Its value is -0.644 and -0.562.

And the CPM (Sample 2, serum, Table II)?
Its CPM is 7735 CPM and 7778 CPM and 7386 CPM.

What about the “Logit (B/Bo)” value (Sample 2, serum, Table II) of the same compound?
Its value is 0.288 and 0.295 and 0.227.

What about the CPM (Standard A, 10^-5 M amitriptyline (background), Table II) of the same compound?
Its CPM is 533 CPM and 529 CPM and 479 CPM.

What about the CPM (Standard A, 10^-5 M amitriptyline (background), imipramine curve, Table III) of the same compound?
The CPM was 533 CPM and 529 CPM and 479 CPM.

What about the CPM [1] of the same compound?
The CPM was 1914 CPM and 1790 CPM and 1679 CPM.

What about the “Logit (B/Bo)” value [1] of the same compound?
Its value is -0.834 and -0.879 and -0.924.

And the CPM [2]?
Its CPM is 5285 CPM and 5442 CPM and 5239 CPM.

And the “Logit (B/Bo)” value [2]?
The value was -0.112 and -0.087 and -0.119.

And the CPM [3]?
Its CPM is 9240 CPM and 9692 CPM.

What about the “Logit (B/Bo)” value [3] of the same compound?
The value was 0.595 and 0.716.

What about the CPM (Standard F, 0.04 μM amitriptyline, Table II) of the same compound?
The CPM was 11235 CPM.

With `CN(C)CCCN1c2ccccc2CCc2ccccc21` [imipramine] as the compound, how does the CPM (Sample 1, serum, Table III) read?
Its CPM is 7105 CPM and 7146 CPM and 6773 CPM.

What about the “Logit (B/Bo)” value (Sample 1, serum, Table III) of the same compound?
The value was 0.180 and 0.187 and 0.125.

What about the CPM (Sample 2, serum, Table III) of the same compound?
The CPM was 9642 CPM and 8636 CPM and 8069 CPM.

And the CPM [4]?
The CPM was 4922 CPM and 4908 CPM and 4803 CPM.

And the “Logit (B/Bo)” value [4]?
Its value is -0.171 and -0.173 and -0.191.

And the CPM [5]?
Its CPM is 8706 CPM and 8704 CPM and 8799 CPM.

What about the “Logit (B/Bo)” value [5] of the same compound?
The value was 0.473 and 0.493.

And the CPM [6]?
The CPM was 10370 CPM and 10617 CPM and 10843 CPM.

And the “Logit (B/Bo)” value [6]?
The value was 0.957 and 1.079 and 1.224.
